Assay results: publication PMC12136037, “Type II kinase inhibitors that target Parkinson’s disease–associated LRRK2” (Science Advances, 2025)

What was measured:
Assay in all cases: DSF 100 kinase selectivity screen;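 further: compound tested at 20 µM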
Format in all cases: binding
[1] = target: T1, ~100 representative kinases (Homo sapiens, UniProt Q99683); details: protein MAP3K5; average of three replicates
T1 construct: Recombinant protein kinase domains with a concentration of 2 μM
T1 sequence (Q99683 1-1374): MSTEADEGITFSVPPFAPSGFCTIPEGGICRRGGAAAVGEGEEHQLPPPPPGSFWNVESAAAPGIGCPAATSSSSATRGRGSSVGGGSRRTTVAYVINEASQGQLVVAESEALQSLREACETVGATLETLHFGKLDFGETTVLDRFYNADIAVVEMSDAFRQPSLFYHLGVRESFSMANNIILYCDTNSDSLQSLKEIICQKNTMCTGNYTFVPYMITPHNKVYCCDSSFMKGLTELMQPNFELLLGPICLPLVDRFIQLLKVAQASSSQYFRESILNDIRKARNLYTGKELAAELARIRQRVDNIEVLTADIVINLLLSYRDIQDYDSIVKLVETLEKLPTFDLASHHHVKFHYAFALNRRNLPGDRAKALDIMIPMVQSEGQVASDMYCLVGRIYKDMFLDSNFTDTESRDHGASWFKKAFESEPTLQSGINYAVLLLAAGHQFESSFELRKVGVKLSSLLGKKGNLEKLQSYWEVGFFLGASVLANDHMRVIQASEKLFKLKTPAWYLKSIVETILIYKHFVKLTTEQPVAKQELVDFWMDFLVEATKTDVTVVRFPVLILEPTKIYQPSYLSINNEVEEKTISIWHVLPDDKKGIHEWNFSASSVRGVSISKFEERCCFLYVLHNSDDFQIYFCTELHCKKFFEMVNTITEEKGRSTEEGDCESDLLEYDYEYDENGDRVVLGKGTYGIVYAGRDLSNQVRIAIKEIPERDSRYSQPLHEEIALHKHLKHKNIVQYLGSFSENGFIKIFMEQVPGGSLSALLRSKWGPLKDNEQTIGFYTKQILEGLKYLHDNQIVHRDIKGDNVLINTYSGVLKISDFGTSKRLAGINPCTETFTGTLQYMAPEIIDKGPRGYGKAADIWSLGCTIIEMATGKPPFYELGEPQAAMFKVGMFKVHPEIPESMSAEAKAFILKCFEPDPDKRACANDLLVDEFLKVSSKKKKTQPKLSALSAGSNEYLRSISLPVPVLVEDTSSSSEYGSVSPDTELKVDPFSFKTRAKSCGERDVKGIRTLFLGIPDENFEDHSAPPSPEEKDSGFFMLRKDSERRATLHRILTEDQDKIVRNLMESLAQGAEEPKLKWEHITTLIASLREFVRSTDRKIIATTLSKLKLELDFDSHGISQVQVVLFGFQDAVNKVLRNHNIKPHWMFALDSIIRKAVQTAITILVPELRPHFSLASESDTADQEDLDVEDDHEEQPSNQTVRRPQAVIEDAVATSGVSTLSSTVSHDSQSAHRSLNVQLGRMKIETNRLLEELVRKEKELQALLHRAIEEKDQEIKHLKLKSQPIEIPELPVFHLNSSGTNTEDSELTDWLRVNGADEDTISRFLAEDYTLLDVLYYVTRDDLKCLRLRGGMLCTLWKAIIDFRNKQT
Outline: (§1)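 Each kinase domain, at 2 μM, is mixed with 20 μM test compound and SYPRO Orange in Hepes (20 mM, pH 7.5) with 500 mM NaCl. Temperature is then raised at 3°C/min and fluorescence-monitored unfolding yields the melting temperature change, ΔTm in degrees Celsius.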

[2] = target: T2, ~100 representative kinases (Homo sapiens, UniProt P54764); details: Protein EPHA4; average of three replicates
T2 construct: Recombinant protein kinase domains with a concentration of 2 μM
T2 sequence (P54764 20-986): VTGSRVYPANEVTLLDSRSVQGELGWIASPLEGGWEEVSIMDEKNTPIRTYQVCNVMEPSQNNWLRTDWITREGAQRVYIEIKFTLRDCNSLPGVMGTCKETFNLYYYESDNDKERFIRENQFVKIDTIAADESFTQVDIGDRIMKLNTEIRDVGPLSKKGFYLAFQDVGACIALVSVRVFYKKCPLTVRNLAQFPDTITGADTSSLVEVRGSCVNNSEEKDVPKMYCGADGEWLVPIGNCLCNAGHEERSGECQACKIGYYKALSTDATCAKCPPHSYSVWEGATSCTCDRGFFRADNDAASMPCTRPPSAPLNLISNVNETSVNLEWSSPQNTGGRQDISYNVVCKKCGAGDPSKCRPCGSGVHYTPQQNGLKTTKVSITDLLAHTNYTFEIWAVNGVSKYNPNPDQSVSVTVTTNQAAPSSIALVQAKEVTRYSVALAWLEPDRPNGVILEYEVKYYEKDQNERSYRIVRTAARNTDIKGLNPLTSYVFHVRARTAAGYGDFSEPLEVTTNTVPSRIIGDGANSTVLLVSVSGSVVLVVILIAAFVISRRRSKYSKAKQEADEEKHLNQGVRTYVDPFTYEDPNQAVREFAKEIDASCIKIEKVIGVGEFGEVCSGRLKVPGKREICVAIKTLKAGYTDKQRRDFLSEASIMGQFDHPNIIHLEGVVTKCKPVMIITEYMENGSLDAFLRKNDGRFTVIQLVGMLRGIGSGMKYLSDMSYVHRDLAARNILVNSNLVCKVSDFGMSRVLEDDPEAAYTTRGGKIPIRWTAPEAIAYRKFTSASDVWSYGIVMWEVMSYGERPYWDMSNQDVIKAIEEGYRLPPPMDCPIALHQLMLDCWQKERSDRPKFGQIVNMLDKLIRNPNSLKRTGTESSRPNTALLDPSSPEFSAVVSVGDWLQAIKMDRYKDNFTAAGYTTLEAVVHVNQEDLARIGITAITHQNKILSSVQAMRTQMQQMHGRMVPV
Outline: as §1

[3] = target: T3, ~100 representative kinases (Homo sapiens, UniProt Q8TD08); details: protein MAPK15; average of three replicates
T3 construct: Recombinant protein kinase domains with a concentration of 2 μM
T3 sequence (Q8TD08 1-544): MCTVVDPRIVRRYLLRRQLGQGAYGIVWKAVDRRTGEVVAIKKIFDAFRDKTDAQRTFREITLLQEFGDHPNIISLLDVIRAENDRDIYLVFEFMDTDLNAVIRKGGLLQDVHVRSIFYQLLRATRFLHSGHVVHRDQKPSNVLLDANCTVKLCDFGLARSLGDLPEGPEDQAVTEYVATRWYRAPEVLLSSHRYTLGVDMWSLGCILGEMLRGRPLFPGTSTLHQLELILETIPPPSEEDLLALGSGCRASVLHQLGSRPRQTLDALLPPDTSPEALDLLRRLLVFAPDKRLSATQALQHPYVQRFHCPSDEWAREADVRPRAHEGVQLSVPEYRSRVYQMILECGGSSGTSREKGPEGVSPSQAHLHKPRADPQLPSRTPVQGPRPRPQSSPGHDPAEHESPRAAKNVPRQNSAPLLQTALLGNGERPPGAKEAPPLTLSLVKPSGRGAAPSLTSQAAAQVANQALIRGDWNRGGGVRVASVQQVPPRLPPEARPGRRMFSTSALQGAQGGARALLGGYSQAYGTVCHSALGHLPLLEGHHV
Outline: as §1

[4] = target: T4, ~100 representative kinases (Homo sapiens, UniProt P49759); details: Protein CLK1; average of three replicates
T4 construct: Recombinant protein kinase domains with a concentration of 2 μM
T4 sequence (P49759 whole entry, the tested form may be a part): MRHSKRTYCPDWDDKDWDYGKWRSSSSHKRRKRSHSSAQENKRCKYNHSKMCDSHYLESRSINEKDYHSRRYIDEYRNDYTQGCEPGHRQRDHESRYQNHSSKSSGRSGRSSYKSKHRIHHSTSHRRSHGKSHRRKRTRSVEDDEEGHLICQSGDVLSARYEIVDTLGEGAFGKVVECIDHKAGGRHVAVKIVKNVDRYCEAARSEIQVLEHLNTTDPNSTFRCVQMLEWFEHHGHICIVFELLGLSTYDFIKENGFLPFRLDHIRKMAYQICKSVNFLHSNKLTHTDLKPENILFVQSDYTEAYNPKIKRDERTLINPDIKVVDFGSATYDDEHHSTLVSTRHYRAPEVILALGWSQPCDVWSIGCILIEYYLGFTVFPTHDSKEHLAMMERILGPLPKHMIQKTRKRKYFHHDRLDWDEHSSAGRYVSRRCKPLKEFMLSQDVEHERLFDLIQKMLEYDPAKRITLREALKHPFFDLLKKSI
Outline: as §1

[5] = target: T5, ~100 representative kinases (Homo sapiens, UniProt P21675); details: Protein TAF1; DSF; average of three replicates
T5 construct: Recombinant protein kinase domains with a concentration of 2 μM
T5 sequence (P21675 whole entry, the tested form may be a part): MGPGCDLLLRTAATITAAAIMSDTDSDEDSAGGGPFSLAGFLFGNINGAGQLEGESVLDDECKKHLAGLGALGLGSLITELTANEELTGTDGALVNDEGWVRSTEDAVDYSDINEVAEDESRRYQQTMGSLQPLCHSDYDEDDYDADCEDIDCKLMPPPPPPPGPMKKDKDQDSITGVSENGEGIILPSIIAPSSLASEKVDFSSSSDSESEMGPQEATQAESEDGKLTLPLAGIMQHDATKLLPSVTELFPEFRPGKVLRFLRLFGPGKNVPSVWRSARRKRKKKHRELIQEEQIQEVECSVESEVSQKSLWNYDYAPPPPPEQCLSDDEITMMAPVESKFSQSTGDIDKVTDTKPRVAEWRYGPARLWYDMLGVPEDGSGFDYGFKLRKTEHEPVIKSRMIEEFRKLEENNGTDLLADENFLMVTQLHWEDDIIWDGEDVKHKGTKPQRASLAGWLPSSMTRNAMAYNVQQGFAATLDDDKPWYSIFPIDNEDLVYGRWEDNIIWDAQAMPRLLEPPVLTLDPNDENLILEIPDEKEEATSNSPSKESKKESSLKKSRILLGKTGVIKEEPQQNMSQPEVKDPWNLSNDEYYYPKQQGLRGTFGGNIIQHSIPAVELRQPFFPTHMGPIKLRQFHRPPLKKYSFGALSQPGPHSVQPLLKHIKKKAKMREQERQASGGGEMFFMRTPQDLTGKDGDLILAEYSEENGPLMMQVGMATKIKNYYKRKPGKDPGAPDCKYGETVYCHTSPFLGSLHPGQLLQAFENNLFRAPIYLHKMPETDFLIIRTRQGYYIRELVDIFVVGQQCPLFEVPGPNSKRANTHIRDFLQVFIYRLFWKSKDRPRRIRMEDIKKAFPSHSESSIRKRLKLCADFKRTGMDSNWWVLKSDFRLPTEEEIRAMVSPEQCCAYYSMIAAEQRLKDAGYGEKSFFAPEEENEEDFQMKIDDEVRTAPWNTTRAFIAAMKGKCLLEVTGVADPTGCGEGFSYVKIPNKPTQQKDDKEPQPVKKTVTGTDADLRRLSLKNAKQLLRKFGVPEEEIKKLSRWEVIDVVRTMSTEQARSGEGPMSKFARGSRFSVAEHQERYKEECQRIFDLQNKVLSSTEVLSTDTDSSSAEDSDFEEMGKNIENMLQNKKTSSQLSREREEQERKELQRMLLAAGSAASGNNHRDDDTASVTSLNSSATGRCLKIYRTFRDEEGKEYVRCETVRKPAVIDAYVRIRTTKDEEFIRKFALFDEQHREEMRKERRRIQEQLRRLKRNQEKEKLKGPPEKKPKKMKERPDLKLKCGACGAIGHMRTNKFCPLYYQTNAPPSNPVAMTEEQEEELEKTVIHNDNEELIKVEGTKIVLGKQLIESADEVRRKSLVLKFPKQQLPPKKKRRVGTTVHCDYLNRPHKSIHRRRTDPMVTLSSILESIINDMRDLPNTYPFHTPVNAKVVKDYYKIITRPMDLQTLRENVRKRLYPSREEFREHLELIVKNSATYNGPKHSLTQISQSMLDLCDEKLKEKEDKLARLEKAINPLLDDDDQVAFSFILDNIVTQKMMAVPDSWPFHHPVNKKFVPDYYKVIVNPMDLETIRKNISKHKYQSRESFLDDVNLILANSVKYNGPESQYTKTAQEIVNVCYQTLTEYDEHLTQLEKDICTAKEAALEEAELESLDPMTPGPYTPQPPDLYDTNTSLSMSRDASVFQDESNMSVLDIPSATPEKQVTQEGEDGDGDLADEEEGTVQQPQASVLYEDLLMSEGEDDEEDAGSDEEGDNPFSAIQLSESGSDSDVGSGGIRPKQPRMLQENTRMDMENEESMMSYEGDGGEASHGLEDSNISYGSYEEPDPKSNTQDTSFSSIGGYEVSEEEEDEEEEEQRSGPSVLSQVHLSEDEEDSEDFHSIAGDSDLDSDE
Outline: as §1

[6] = target: T6, ~100 representative kinases (Homo sapiens, UniProt Q6PHR2); details: Protein ULK3; DSF; average of three replicates
T6 construct: Recombinant protein kinase domains with a concentration of 2 μM
T6 sequence (Q6PHR2 1-472): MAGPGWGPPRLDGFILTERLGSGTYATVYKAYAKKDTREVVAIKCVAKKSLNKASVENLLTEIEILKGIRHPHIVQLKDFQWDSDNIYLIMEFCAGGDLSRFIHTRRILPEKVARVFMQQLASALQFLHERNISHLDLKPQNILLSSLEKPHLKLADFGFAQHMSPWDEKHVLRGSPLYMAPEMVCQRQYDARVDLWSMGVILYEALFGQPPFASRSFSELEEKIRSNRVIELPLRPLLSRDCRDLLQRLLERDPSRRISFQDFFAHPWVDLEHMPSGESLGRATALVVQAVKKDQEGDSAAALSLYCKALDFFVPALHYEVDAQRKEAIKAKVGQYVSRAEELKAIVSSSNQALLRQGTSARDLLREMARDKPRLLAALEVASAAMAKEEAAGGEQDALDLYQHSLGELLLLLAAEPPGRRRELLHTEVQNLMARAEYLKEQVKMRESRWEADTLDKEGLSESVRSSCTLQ
Outline: as §1

[7] = target: T7, ~100 representative kinases (Homo sapiens, UniProt P48730); details: Protein CSNK1D; average of three replicates
T7 construct: Recombinant protein kinase domains with a concentration of 2 μM
T7 sequence (P48730 whole entry, the tested form may be a part): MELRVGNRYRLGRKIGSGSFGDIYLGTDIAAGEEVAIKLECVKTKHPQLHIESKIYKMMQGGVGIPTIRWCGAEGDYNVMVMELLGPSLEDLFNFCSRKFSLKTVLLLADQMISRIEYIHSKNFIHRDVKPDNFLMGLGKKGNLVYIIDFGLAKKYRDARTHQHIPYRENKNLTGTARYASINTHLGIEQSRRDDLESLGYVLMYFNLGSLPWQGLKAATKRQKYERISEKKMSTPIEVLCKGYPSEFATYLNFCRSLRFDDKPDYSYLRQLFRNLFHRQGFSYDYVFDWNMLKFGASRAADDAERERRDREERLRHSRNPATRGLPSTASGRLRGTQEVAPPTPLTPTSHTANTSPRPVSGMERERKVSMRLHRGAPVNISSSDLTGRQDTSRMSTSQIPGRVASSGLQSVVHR
Outline: as §1

Structure (SMILES) | dTm [1] [K] | dTm [2] [K] | dTm [4] [K] | dTm [5] [K] | dTm [6] [K] | dTm [7] [K] | dTm [3] [K]
COc1cc2c(Oc3ccc(NC(=O)C4(C(=O)Nc5ccc(F)cc5)CC4)cc3F)ccnc2cc1OCCCN1CCOCC1 [Foretinib, reference compound] | 2.33 | 11.16 | 6.72 | 0.54 | 14.26 | 0.91 | 8.58
O=C(Nc1cccc(-c2c[nH]c3ncnc(N4CCOCC4)c23)c1)C1(C(=O)Nc2ccc(F)c(Br)c2F)CC1 [Compound 26] | 3.03 | 2.01 | 6.34 | -1.20 | 7.33 | 0.95 | 5.05
C[C@@H]1CN(c2cc(-c3n[nH]c4ccc(OC5(C)CC5)cc34)ncn2)C[C@H](C)O1 [MLi2] | 3.65 | -0.15 | 3.00 | -0.34 | 0.19 | 0.66 | -0.33
COc1cc(S(C)(=O)=O)ccc1Nc1nc(N(C)C)c2c(Cl)c[nH]c2n1 [Compound 37] | 1.09 | -0.37 | 5.62 | 1.43 | 1.01 | 2.29 | -0.10
O=C(Nc1cccc(-c2c[nH]c3ncnc(N4CCOCC4)c23)c1)C1(C(=O)Nc2cccc3c2CCC3)CC1 [Compound 11] | 3.33 | 0.40 | 7.29 | -5.02 | 5.81 | 1.21 | 5.24
COc1cc(C(=O)N2CCOCC2)c(F)cc1Nc1nc(N(C)C)c2c(Cl)c[nH]c2n1 [Compound 36] | 6.66 | -0.69 | 8.96 | 1.23 | 4.06 | 4.03 | 0.97
Cn1cc(-c2c[nH]c3ncnc(N4CCOCC4)c23)cc1C#N [PFE-360] | 15.45 | 0.0126 | 7.59 | -0.43 | 5.19 | 0.63 | 3.82
Cc1ccc(C(=O)Nc2ccc(CN3CCN(C)CC3)c(C(F)(F)F)c2)cc1C#Cc1c[nH]c2ncnc(N3CCOCC3)c12 [Compound 1] | 6.86 | 4.12 | 8.76 | 0.36 | 9.22 | 0.0454 | 8.49
Cc1ccc(C(=O)Nc2ccc(CN3CCN(C)CC3)c(C(F)(F)F)c2)cc1C#Cc1cnc2[nH]ncc2c1 [GZD-824, reference compound] | 5.05 | 15.22 | 7.80 | -0.68 | 9.35 | 1.29 | 5.29

The next lines start with results.

dTm [1] [K] | dTm [2] [K] | dTm [4] [K] | dTm [5] [K] | dTm [6] [K] | dTm [7] [K] | Structure (SMILES) | dTm [3] [K]
1.27 | 2.16 | 6.65 | 1.78 | 8.77 | 1.30 | CCc1ccc(NC(=O)C2(C(=O)Nc3cccc(-c4c[nH]c5ncnc(N6CCOCC6)c45)c3)CC2)cc1 [Compound 15] | 5.20
1.23 | 2.58 | 10.57 | -2.02 | 0.92 | -0.88 | CC(=O)N1CCN(c2nc(Cl)nc3[nH]cc(-c4cccc(NC(=O)Nc5cc(C(C)(C)C)nn5-c5ccc(C)cc5)c4)c23)CC1 [Compound 31] | 8.84
2.39 | 1.15 | 7.21 | 0.59 | 8.50 | 1.02 | O=C(Nc1cccc(-c2c[nH]c3ncnc(N4CCOCC4)c23)c1)C1(C(=O)Nc2ccc(F)cc2F)CC1 [Compound 23] | 6.01
2.42 | 1.72 | 9.52 | -0.82 | 7.80 | 1.61 | O=C(Nc1ccccc1)C1(C(=O)Nc2cccc(-c3c[nH]c4ncnc(N5CCOCC5)c34)c2)CC1 [Compound 12] | 8.68
3.36 | 8.59 | 19.59 | 1.17 | 7.06 | 1.22 | CC(C)(C)c1cc(NC(=O)Nc2cccc(-c3c[nH]c4ncnc(N5CCOCC5)c34)c2)n(-c2ccc3ncccc3c2)n1 [Compound 28] | 14.38
3.67 | 1.94 | 9.40 | 1.40 | 9.54 | 3.14 | O=C(Nc1cccc(-c2c[nH]c3ncnc(N4CCOCC4)c23)c1)C1(C(=O)Nc2ccc(F)c(Cl)c2)CC1 [Compound 18] | 12.35
3.32 | 1.24 | 8.95 | 0.99 | 7.52 | 2.63 | O=C(Nc1cccc(-c2c[nH]c3ncnc(N4CCOCC4)c23)c1)C1(C(=O)Nc2ccc(F)c(F)c2)CC1 [Compound 17] | 10.37
5.22 | 1.78 | 8.69 | 0.00 | 5.66 | 0.43 | O=C(Nc1cccc(-c2c[nH]c3ncnc(N4CCOCC4)c23)c1)C1(C(=O)Nc2ccc(F)c(Br)c2)CC1 [Compound 19] | 11.25
